These results are taken from PubChem BioAssay (NCI).

The term GI50 denotes the concentration giving 50% growth inhibition. In general, TGI refers to the concentration at which net growth stops. A low value points to greater sensitivity of the cells.

Several values for one entry are separate records, joined by “and”; a condition that tells them apart may be missing. Equal entries are not always repeated.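 Cells were grown in 96-well plates and exposed to each compound for 48 hours at five concentrations; endpoints were interpolated linearly between bracketing concentrations, or set to the highest concentration if not reached. At the GI50, growth is halved. At the TGI there is no net growth.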

Some test systems named below: UACC-257 melanoma; NCI-H522 lung; A498 renal; MALME-3M melanoma; ACHN renal; OVCAR-8 ovarian; OVCAR-5 ovarian; MOLT-4 leukemia; HT29 colon; M14 melanoma.
Test in all cases: DTP human tumour cell line panel, 48 h

Take `O=c1[nH]ccc2nc(N3CCC(O)CC3)nc(Nc3ccc(N4CCOCC4)cc3)c12`: the GI50 in the experiment with UACC-257 melanoma was over 100 µM; in the experiment on NCI-H522 lung it was over 100 µM; in the experiment on A498 renal it was 1.49 µM; with MALME-3M melanoma, 1.61 µM; with ACHN renal, 0.797 µM; in the experiment with OVCAR-8 ovarian, over 100 µM. Also, the GI50 is 3.38 µM in the experiment with OVCAR-5 ovarian, over 83.8 µM in the experiment with MOLT-4 leukemia, 1.06 µM in the experiment with HT29 colon and 0.351 µM in the experiment with M14 melanoma. Besides, the TGI was over 100 µM in the experiment with UACC-257 melanoma; over 100 µM with NCI-H522 lung; 9.77 µM in the experiment with A498 renal; over 63 µM with MALME-3M melanoma; over 100 µM in the experiment with ACHN renal; over 100 µM in the experiment with OVCAR-8 ovarian. In addition, the TGI in the experiment on OVCAR-5 ovarian, in the experiment with MOLT-4 leukemia, with HT29 colon and in the experiment with M14 melanoma was over 100 µM throughout.
Regarding `CS(=O)(=O)OCCCCOS(C)(=O)=O`, the GI50 is 571 µM with UACC-257 melanoma; 466 µM with NCI-H522 lung; over 883 µM in the experiment on A498 renal; over 1000 µM with MALME-3M melanoma; 354 µM with ACHN renal; over 873 µM with OVCAR-8 ovarian. For the same molecule, the results for the GI50 in the experiment on OVCAR-5 ovarian, in the experiment with HT29 colon and with M14 melanoma were over 698 µM, over 846 µM and 765 µM, respectively. Also, the TGI is 230 µM and > 1000 µM in the experiment with UACC-257 melanoma; 250 µM and > 1000 µM in the experiment with NCI-H522 lung; 249 µM and > 1000 µM with A498 renal; 250 µM and > 1000 µM with MALME-3M melanoma; 250 µM and > 1000 µM with ACHN renal; 250 µM and > 1000 µM with OVCAR-8 ovarian. Moreover, the TGI is over 1000 µM with OVCAR-5 ovarian; 233 µM and 992 µM in the experiment with MOLT-4 leukemia; 250 µM and > 1000 µM in the experiment on HT29 colon; 250 µM and > 1000 µM in the experiment on M14 melanoma.
Consider `S=P(C1CCCCC1)(C1CCCCC1)C(c1cccnc1)N1CCCC1` (stereo not given), for which the TGI with UACC-257 melanoma was over 100 µM; in the experiment with NCI-H522 lung, 41.2 µM; with A498 renal, 67.9 µM; in the experiment with MALME-3M melanoma it was 39.9 µM; in the experiment with ACHN renal it was 34.7 µM; with OVCAR-8 ovarian it was 51.7 µM. In addition, the TGI was over 100 µM with OVCAR-5 ovarian, 42.7 µM in the experiment on MOLT-4 leukemia, over 100 µM with HT29 colon and 34.6 µM in the experiment with M14 melanoma.
In the case of `O=C1c2cccc3c([N+](=O)[O-])ccc(c23)C(=O)N1CCCCl`, the GI50 in the experiment with UACC-257 melanoma was 7.14 µM; in the experiment on NCI-H522 lung, 4.34 µM; with A498 renal it was over 10 µM; in the experiment with MALME-3M melanoma, 9.77 µM; in the experiment on ACHN renal it was over 10 µM; in the experiment with OVCAR-8 ovarian it was 3.86 µM. Further, the GI50 in the experiment on OVCAR-5 ovarian was over 10 µM; in the experiment with MOLT-4 leukemia it was 2.41 µM; in the experiment with HT29 colon it was 4.25 µM; with M14 melanoma, 5.85 µM. The TGI in the experiment on UACC-257 melanoma, in the experiment on NCI-H522 lung, in the experiment on A498 renal, in the experiment with MALME-3M melanoma, in the experiment with ACHN renal and in the experiment with OVCAR-8 ovarian was over 10 µM each time. Moreover, the TGI in the experiment on OVCAR-5 ovarian is over 10 µM; in the experiment with MOLT-4 leukemia, 5.95 µM; in the experiment with HT29 colon it was over 10 µM; with M14 melanoma, over 10 µM.
In the case of `Cc1cc(NCCCNc2ccnc3cc(Cl)ccc23)nc(Nc2ccc(C(=O)N3CCCCC3)cc2)n1`, the GI50 with UACC-257 melanoma is 2.39 µM; with NCI-H522 lung it was 2.19 µM; with A498 renal, 1.89 µM; in the experiment on MALME-3M melanoma it was 2.34 µM; with ACHN renal, 2.85 µM; with OVCAR-8 ovarian it was 3.61 µM. Besides, the GI50 in the experiment with OVCAR-5 ovarian is 4.5 µM; in the experiment with MOLT-4 leukemia, 2.86 µM; in the experiment with HT29 colon it was 2.33 µM; in the experiment with M14 melanoma it was 2.12 µM. Moreover, the TGI was 4.56 µM in the experiment on UACC-257 melanoma; 4.45 µM in the experiment on NCI-H522 lung; 5.07 µM in the experiment with A498 renal; 4.15 µM in the experiment on MALME-3M melanoma; 8.23 µM in the experiment with ACHN renal; 12.4 µM in the experiment with OVCAR-8 ovarian. The TGI stood at 18.5 µM in the experiment with OVCAR-5 ovarian, 13.5 µM with MOLT-4 leukemia, 7.2 µM in the experiment on HT29 colon and 4.06 µM in the experiment on M14 melanoma.
In the case of `Cc1cc(Cl)ccc1NC(=O)C1C(=O)C(=O)N(c2ccc(Cl)cc2C)C1=O` (stereo not given), the TGI in the experiment with UACC-257 melanoma, in the experiment with NCI-H522 lung, in the experiment with A498 renal, with MALME-3M melanoma, in the experiment with ACHN renal and with OVCAR-8 ovarian was over 100 µM in each case. Moreover, the TGI with OVCAR-5 ovarian, in the experiment on MOLT-4 leukemia, with HT29 colon and in the experiment with M14 melanoma was over 100 µM in each case.
As to `CC(C)C[C@H](NC(=O)[C@H](Cc1ccccc1)NC(=O)c1cnccn1)B(O)O`, the GI50 in the experiment with UACC-257 melanoma was 0.00107 µM; in the experiment on NCI-H522 lung, 0.00143 µM; with A498 renal, 0.000833 µM; in the experiment with MALME-3M melanoma, 0.00116 µM; with ACHN renal it was 0.00181 µM; with OVCAR-8 ovarian, 0.0175 µM and 0.00427 µM. For the same molecule, the GI50 is 0.0026 µM in the experiment on OVCAR-5 ovarian, 0.00143 µM with MOLT-4 leukemia, 0.00166 µM in the experiment on HT29 colon and 0.00322 µM in the experiment with M14 melanoma. For the same molecule, the TGI is 0.00349 µM in the experiment with UACC-257 melanoma; < 0.215 µM and 0.00414 µM with NCI-H522 lung; < 0.01 µM and 0.00352 µM in the experiment on A498 renal; < 0.0454 µM and 0.0194 µM in the experiment on MALME-3M melanoma; 0.0667 µM and 0.0312 µM and < 0.0499 µM with OVCAR-5 ovarian; < 0.0184 µM and 0.0321 µM in the experiment with M14 melanoma.
Regarding `CCN(CC)c1ccc(CNc2cc(C)nc3ccc(OC)cc23)cc1`, the GI50 was 2.14 µM in the experiment with UACC-257 melanoma; 1.51 µM with NCI-H522 lung; 2.24 µM with A498 renal; 1.8 µM with MALME-3M melanoma; 2.63 µM in the experiment on ACHN renal; 4.05 µM with OVCAR-8 ovarian. For the same molecule, the GI50 in the experiment with OVCAR-5 ovarian was 5.37 µM; in the experiment with MOLT-4 leukemia, 3.16 µM; with HT29 colon, 0.955 µM; in the experiment with M14 melanoma, 1.89 µM. Besides, the TGI with UACC-257 melanoma is 4.53 µM; in the experiment on NCI-H522 lung, 3.28 µM; with A498 renal it was 10.1 µM; in the experiment with MALME-3M melanoma, 3.43 µM; with ACHN renal, 7.17 µM; with OVCAR-8 ovarian it was 15.9 µM. Besides, the TGI is 18.6 µM in the experiment on OVCAR-5 ovarian, 9.69 µM with MOLT-4 leukemia, 3.59 µM in the experiment on HT29 colon and 3.7 µM in the experiment with M14 melanoma.
Take `COc1ccc2c(c1)[n+]([O-])c(/C(C)=N/NC(N)=S)c(C)[n+]2[O-]`: the TGI in the experiment with UACC-257 melanoma, in the experiment with NCI-H522 lung, in the experiment on A498 renal, with MALME-3M melanoma, in the experiment with ACHN renal and with OVCAR-8 ovarian was over 100 µM each time. The TGI with OVCAR-5 ovarian is over 100 µM; in the experiment with MOLT-4 leukemia, over 83.8 µM; in the experiment with HT29 colon, over 100 µM; in the experiment with M14 melanoma, over 100 µM.
